In patent US20090042883A1, “ANTITUMOR AGENT” (KYOWA HAKKOKOGYO CO., priority 2005, published 2009):

Key:
[1] = tested on: human prostate cancer 22Rv1 cells; assay: Antitumor effect in vivo, mouse model transplanted with human prostate cancer 22Rv1 cells; details: 22Rv1 subcutaneous transplant in BALB/cAJc1-nu mice; 100 mg/kg intravenously twice a day on days 0 to 4; tumor volume to day 17
Protocol: Using an experimental system in which human prostate cancer 22Rv1 cells were transplanted into immunodeficient mice as disease models of solid tumor, the antitumor effect in vivo of Compound 33 was examined.
(§1) 22Rv1 cells were cultured and grown in RPMI1640 medium containing 10% fetal calf serum (FCS) in a 5% carbon dioxide incubator at 37° C., and the cultured cells (1×10^7 cells/mouse) were subcutaneously, ventrally transplanted into BALB/cAJc1-nu mice (CLEA Japan). Seventeen days after the transplantation, the major axis and minor axis of the tumors subcutaneously grown were measured with slide calipers, and the tumor volume was determined according to the following formula: […]
(§2) At the same time, the body weight of each mouse was measured, and the mice were divided into two groups, i.e., a group to be administered with drugs and a group not to be administered with drugs, such that each group consists of five mice with various weights and tumor volumes. This day was defined as day 0 of the administration test. Drug administration was started in the following manner. […]

[2] = tested on: human lung cancer NCI-H596 cells; assay: Antitumor effect in vivo, mouse model transplanted with human lung cancer NCI-H596 cells; details: NCI-H596 subcutaneous transplant in BALB/cAJc1-nu mice; 50 mg/kg intravenously twice a day on days 0 to 4; tumor volume to day 17
Protocol: Using an experimental system in which human lung cancer NCI-H596 cells were transplanted into immunodeficient mice as disease models of solid tumor, the antitumor effect in vivo of Compound 33 was examined.
as §1, with “NCI-H596” for “22Rv1”, “Japan). From the mice in which tumors were formed, the tumors were removed. The tumor tissues were cut into small pieces of about 8 mm^3, which were subcutaneously, ventrally transplanted, using a trocar needle, into BALB/cAJc1-nu mice (CLEA Japan) to be used for experiment.” for “Japan).”
as §2

[3] = tested on: human chronic myelocytic leukemia K562 cells; assay: Antitumor effect in vivo, mouse model transplanted with human chronic myelocytic leukemia K562 cells; details: K562 subcutaneous transplant in Fox C.B-17/Icr-scid mice; 100 mg/kg intravenously twice a day on days 0, 1, 2, 7, 8, 9; tumor volume to day 22
Protocol: Using an experimental system in which human chronic myelocytic leukemia K562 cells were transplanted into immunodeficient mice as disease models of hematopoietic tumor, the antitumor effect in vivo of Compound 33 was examined.
as §1, with “One day before the transplantation of cancer cells, an anti-asialo GM1 antibody was intraabdominally administered to Fox C.B-17/Icr-scidJc1 mice (CLEA Japan) in an amount of 0.3 mg per mouse. K562” for “22Rv1”, “the mice. Ten” for “BALB/cAJc1-nu mice (CLEA Japan). Seventeen”
as §2

CCc1c(O)cc(O)c(C(=O)c2ccc(OC)cc2)c1CC(=O)N(CCO)CCOC [Compound 33]
apparent suppression of tumor growth: antitumor effect in vivo (tumor volume, FIG. 3) [1] | antitumor effect in vivo (tumor volume, FIG. 2) [2] | antitumor effect in vivo (tumor volume, FIG. 1) [3]
